Drawing on ChEMBL document CHEMBL3507680, “University of Dundee, Gates Library screen for HepG2 cell viability”, this text covers cytotoxicity for 68 compounds.

The nature of this data set: Human HepG2 cell viability assay in 384 well format. Type of data set: toxicity, cell-based. The conditions noted are these: HepG2 cells, read-out: Inhibition. Further details: dose 125 nL, time 70.5 hour; concentration not given beside the values.

As for `CN(CCc1cn[nH]c1)C(=O)C1CC(=O)N(Cc2cccnc2)C1` (stereo not drawn), the cytotoxicity at 70.5 h came to 34.9%.
`CSCc1nc(CNC(=O)C2CCCN(CC(N)=O)C2)cs1` (stereo not drawn): the cytotoxicity at 70.5 h came out at 11.4%.
Consider `COc1ccccc1OCc1cc(C(=O)N2CCCCCC2CO)n[nH]1` (stereo not drawn), for which the cytotoxicity at 70.5 h is 8.73%.
`COc1ccccc1OCCCN(C)c1cc(C)nc(N)n1`: the cytotoxicity at 70.5 h was -4.86%.
As for `O=C(NCCc1cnccn1)c1cccc(S(=O)(=O)NC2CCOC2)c1` (stereo not drawn), the cytotoxicity at 70.5 h is -1.15%.
For `C[C@@H]1CN(C(=O)CCN2CCCC2)CC[C@@]1(O)C1CCC1`, the cytotoxicity at 70.5 h amounted to 1.37%.
The same measure for `CC(C)C(NC(=O)c1ccc(=O)[nH]c1)c1nnc2n1CCNCC2` (stereo not drawn): -6.19%; for `O=C(c1nc2sccn2c1-c1ncc[nH]1)N1CCCCC1`: -17.8%; for `O=C(CCC(=O)N1CCC(Cc2ccc(CO)cc2)C1)c1ccccc1` (stereo not drawn): -13.8%.
As for `CN(Cc1nc2ccsc2c(=O)[nH]1)C[C@@H]1CCCN2CCCC[C@H]12`, the cytotoxicity at 70.5 h amounted to 14.5%.
For the compound `O=C(CN1CCOC1=O)N1CCc2nnc(Cc3ccccc3)n2CC1`, the cytotoxicity at 70.5 h stood at 17.1%.
As to `COCCC1(C(=O)O)CCCN(Cc2cc3c(cc2Cl)OCO3)C1` (stereo not drawn), the cytotoxicity at 70.5 h is -5.22%.
For `O=C1NC[C@@]2(C(=O)O)CN(Cc3cccc(C(F)(F)F)c3)C[C@@H]12`, the cytotoxicity at 70.5 h was 7.18%.
Regarding `O=C(CCCn1ccnc1)N1CCC2(CC1)[C@H](O)C[C@@H]2OCCO`, the cytotoxicity at 70.5 h is -7.46%.
Then `Cc1ccc(C2(CN3CCCC3)CCNCC2)nc1`, with -9.4%; and `CCN1CC(C(=O)N2CCC(Oc3ccccc3Cl)CC2)CC1=O` (stereo not drawn), with 4.13%.
The same measure for `COCCCC1(CO)CCCN(CCc2ccccc2)C1` (stereo not drawn): -1.1%.
Then `CNC(=O)C(C)(C)NC(=O)c1cc(OCC2CCC2)cc(C(=O)OC)c1`, with -1.19%; and `CC(C)n1ccnc1C1CCCN(c2ccnc3ccccc23)C1` (stereo not drawn), with -0.236%.
As for `Cc1ccc(Cl)cc1C(=O)N1CCC2(CC1)c1ccccc1[C@@H](N)[C@@H]2O`, the cytotoxicity at 70.5 h was 15.9%.
On to `O=C(Cc1ccc(O)c(Cl)c1)N1CCN(CC2CC2)[C@@H]2CS(=O)(=O)C[C@@H]21`, for which the cytotoxicity at 70.5 h is 17.4%.
As to `Cc1ccc([C@@H]2CN(C(=O)c3ccc[nH]3)C[C@H]2NC(=O)C2CC2)cc1`, the cytotoxicity at 70.5 h was -8.09%.
Regarding `Cc1ccccc1[C@@H]1CN(C(=O)c2ccc3[nH]nnc3c2)C[C@H]1C(=O)O`, the cytotoxicity at 70.5 h is -4.82%.
`CN(C)Cc1nnc(C2CCN(c3nccc(N)n3)CC2)n1C1CC1`: the cytotoxicity at 70.5 h was determined as 2.16%.
Regarding `Cn1c(Cn2cccn2)nnc1C1CCCN(c2ccncc2)C1` (stereo not drawn), the cytotoxicity at 70.5 h is -8.1%.
For `N#Cc1cccc(S(=O)(=O)N2CCCCC2CCN2CCCC2=O)c1` (stereo not drawn), the cytotoxicity at 70.5 h was -2.56%.
As for `Cc1nc(C(=O)N2CCc3c(nc(-c4ccncc4)[nH]c3=O)C2)cs1`, the cytotoxicity at 70.5 h was -8.1%.
Consider `CCc1csc(CCNC(=O)C2CC(=O)N(C(C)C)C2)n1` (stereo not drawn), for which the cytotoxicity at 70.5 h is 4.82%.
In the case of `COCCc1noc(CNC2CCSC2)n1` (stereo not drawn), the cytotoxicity at 70.5 h was -10.2%.
The same measure for `COc1cccc(F)c1C(=O)N1C[C@@H](CN(C)CCO)[C@@H](CO)C1`: -8.49%.
Turning to `Cc1cncc(C(=O)N2CCCC(C(=O)CCc3ccccc3)C2)c1` (stereo not drawn), the cytotoxicity at 70.5 h was -5.02%.
On to `O=S1(=O)C[C@@H]2[C@H](C1)N(Cc1ncc[nH]1)CCN2CC1CC1`, for which the cytotoxicity at 70.5 h was -5.56%.
The same measure for `O=C(c1ccccn1)N1C[C@@H]2CC[C@H](C1)N(C(=O)CCc1cccs1)C2`: -5.4%; for `CC(C)NC(=O)[C@@H]1C[C@H](N)CN1C(=O)c1cc2c([nH]c1=O)CCCC2`: -7.39%.
Regarding `CCC(O)CNC(=O)C1(N(C)Cc2ccccc2)Cc2ccccc2C1` (stereo not drawn), the cytotoxicity at 70.5 h was -3.52%.
On to `CC(C)N1CCC(NCc2cccnc2N(C)Cc2ccccc2)CC1`, for which the cytotoxicity at 70.5 h is -5.38%.
With `Cc1ncccc1OC1(C(=O)NCCCN2CCOCC2)CCNCC1`, the cytotoxicity at 70.5 h was -11.7%.
The same measure for `CC(C)c1nc(N2CCN3CCCC3C2)c2cnn(C)c2n1` (stereo not drawn): 1.45%; for `CCCS(=O)(=O)N1C[C@H]2OC(=O)N(CCc3cccc(Cl)c3)[C@H]2C1`: -4.21%.
As to `COc1cccc2c1OCC(CNC(=O)CCCN1CCOCC1)C2` (stereo not drawn), the cytotoxicity at 70.5 h is -7.84%.
On to `Cc1ccc(F)c(OC2(C(=O)O)CCN(C(=O)N3CCCC3)CC2)c1`, for which the cytotoxicity at 70.5 h was -9.12%.
With `Cc1ccc(C(NC(=O)[C@H]2CC[C@@H](O)CC2)c2cccnc2)cc1C` (stereo partly drawn), the cytotoxicity at 70.5 h is -6.91%.
With `Cc1ncnc(NCc2cc3n(n2)CCCN(S(C)(=O)=O)C3)c1C`, the cytotoxicity at 70.5 h was -12.3%.
For the compound `O=C(CSc1ccccn1)N1C[C@H]2CC[C@@H]1CN(Cc1cscn1)C2`, the cytotoxicity at 70.5 h was -8.62%.
On to `CC(=O)c1cc(CC(=O)NCc2ccc(F)cc2)cs1`, for which the cytotoxicity at 70.5 h is -1.82%.
For the compound `CCN(C)Cc1cnc(S(=O)(=O)CC)n1CCOC`, the cytotoxicity at 70.5 h was -3.96%.
On to `COC[C@@]12CC[C@@H](N3CCOCC3)C[C@H]1CCN(c1ncccc1Cl)C2`, for which the cytotoxicity at 70.5 h is -4.77%.
Take `CN(C)C(=O)c1ccc2c(c1)N(C)C(CC(=O)NC(C)(C)CO)CO2` (stereo not drawn): the cytotoxicity at 70.5 h is 18.8%.
On to `Cc1ccccc1C1CCCN1C(=O)CN1CC2(CCNCC2)OC1=O` (stereo not drawn), for which the cytotoxicity at 70.5 h was -4.74%.
`Cc1cc(N2CCN(Cc3ccccc3)CC(O)C2)cc(C)n1` (stereo not drawn): the cytotoxicity at 70.5 h came to 11.5%.
Turning to `COc1ccc(C(=O)N2CC[C@H](CO)[C@H](O)C2)c(C)c1`, the cytotoxicity at 70.5 h was -4.34%.
Turning to `CSc1ncccc1C(=O)N1C[C@H]2CC[C@@H]1CN(c1ncccn1)C2`, the cytotoxicity at 70.5 h was -10.3%.
Take `O=C1CC(NCc2ccncc2)CN1Cc1cccc(F)c1` (stereo not drawn): the cytotoxicity at 70.5 h came to 1.94%.
Then `CCN1CC2(CCC1=O)CCN(C(=O)c1ccc(Cl)cc1O)CC2`, with -2.93%; and `CCCS(=O)(=O)NCC1CCOc2ccccc2C1` (stereo not drawn), with -1.69%; and `O=C(Nc1nncs1)NC1CCN(Cc2ccccc2)C1` (stereo not drawn), with -5.56%.
In the case of `CN(C)c1cc(C(=O)N2CCCC2)ccn1`, the cytotoxicity at 70.5 h was -10%.
In the case of `Cc1nccn1C1CCCN(C(=O)CCOCC(F)(F)F)C1` (stereo not drawn), the cytotoxicity at 70.5 h came to 17.2%.
`Cc1cc(CN2CCC(N(C)Cc3noc(C4CC4)n3)C2)on1` (stereo not drawn): the cytotoxicity at 70.5 h was 19.5%.
For the compound `Cn1cnc2c1CCN(Cc1cccc(C(=O)N3CCCCC3)c1)C2`, the cytotoxicity at 70.5 h was -7.19%.
As for `COc1cc(C)nc(N2CCN(C(=O)COCC3CC3)CC2)n1`, the cytotoxicity at 70.5 h was -3.61%.
In the case of `O=C1C(NCc2nnc3n2CCCC3)CCN1c1ccccc1F` (stereo not drawn), the cytotoxicity at 70.5 h was -20.6%.
On to `Cc1ccc(-c2cc(C(=O)NCCN3CCCS3(=O)=O)[nH]n2)cc1`, for which the cytotoxicity at 70.5 h is 11.7%.
As to `COc1ccnc(N2CCN(C(=O)COCC(F)(F)F)CC2)n1`, the cytotoxicity at 70.5 h was 13%.
The same measure for `CC(O)CN1CCC(CNCc2ccccc2Cl)CC1` (stereo not drawn): -7.56%; for `CC(C)CNC(=O)c1cccc(CN2CCc3c(ncn3C)C2)c1`: -13.6%; for `CCn1ccnc1CN1CCN(CC(O)c2ccc(OC)cc2)CC1` (stereo not drawn): 12.3%.
Regarding `Cn1nc2c(cc1=O)CN(Cc1nc(-c3ccccn3)no1)CC2`, the cytotoxicity at 70.5 h was -9%.
